Where two headings read alike, the source gives them in different places.
Assay: Pharmacokinetics of ZA in pig serum after IV or SC infusion with or without rHuPH20 (LC-MS-MS, non-compartmental analysis)
Format: in vivo
Procedure: A pharmacokinetic study of zoledronic acid (ZA) co-administered with rHuPH20 in female Yorkshire swines was conducted. The primary objective of the study was to determine the bioavailability of zoledronic acid dosed via subcutaneous (SC) co-administration with human recombinant hyaluronidase PH20 (rHuPH20) and to compare the overall exposure to an equivalent IV dose.
Animals in Study Group 1 were dosed with 0.15 mg/kg ZA given via a 20-minute IV infusion. Animals in Study Groups 2 and 3 were dosed subcutaneously (SC) with 0.15 mg/kg ZA without and with rHuPH20, respectively, in different SC delivery volumes.
Following ZA dose administration, serial blood samples were collected via vascular access ports (VAPs) for serum preparation and determination of ZA concentrations. Blood collection times were at 1, 3, 5, 10, 15, 20, 30, 45, and 60 minutes, and at 1.5, 2, 3, 4, 6, 8, 10, 24, 48, and 72 hours post dose. Urine samples were also collected to compare excretion characteristics between IV and SC routes of administration. Collection times for urine were at 15 minutes before dosing (−15 min.), continuously from dose initiation to 2 hours post dose, and at 4, 6, 8, and 24 hours post dose thereafter.
Serum concentration of ZA was determined using a qualified LC-MS-MS assay after derivatization with diazomethane (Zhu, L S et al. (2006) Rapid Commun. Mass Spectrom. 20: 3421-3426; “Qualification Data of An LC-MS/MS Method for the Determination of Zoledronate in Porcine Serum”, MDS Pharma Services Study No. AA43671-01, Report Date 14 Sep. 2007). The assay range was from 2.0 to 400 ng/mL with a lower limit of quantitation (LLOQ) at 2.0 ng/mL. Urine concentration of ZA was determined by a similar well qualified LC-MS-MS method (“Qualification Data of An LC-MS/MS Method for the Determination of Zoledronate in Porcine Urine”, MDS Pharma Services Study No. AA43671-02, Report Date 14 Sep. 2007) with an assay LLOQ at 10 ng/mL.
Pharmacokinetic (PK) analyses of ZA serum concentration versus time data were conducted using WinNonlin v5.1 (Pharsight, Mountain View, Calif.). Non-compartmental analysis was used for derivation of primary and secondary pharmacokinetic (PK) parameters. AUC, Cmax, and Tmax were compared between dose routes, between co-administration with rHuPH20, and with dose of rHuPH20.

[1] = female, Yorkshire, pig, serum, subcutaneous, […], pig 66, Study Group 3, SC, ZA […], rHuPH20 10000 U/mL, 100 mL over 16 min, read-out: Zoledronic Acid Serum Concentration
[2] = female, Yorkshire, pig, serum, subcutaneous, […], pig 68, Study Group 3, SC, ZA […], rHuPH20 10000 U/mL, 10 mL over 1.6 min, read-out: Zoledronic Acid Serum Concentration
[3] = female, Yorkshire, pig, serum, subcutaneous, pig 56, Study Group 3, SC, ZA […], rHuPH20 10000 U/mL, 25 mL over 4 min, read-out: Zoledronic Acid Serum Concentration
[4] = female, Yorkshire, pig, serum, subcutaneous, pig 58, Study Group 3, SC, ZA […], rHuPH20 10000 U/mL, 50 mL over 8 min, read-out: Zoledronic Acid Serum Concentration
[5] = female, Yorkshire, pig, serum, subcutaneous, pig 68, Study Group 3, SC, ZA […], rHuPH20 10000 U/mL, 10 mL over 1.6 min, read-out: Zoledronic Acid Serum Concentration

O=P(O)(O)C(O)(Cn1ccnc1)P(=O)(O)O [ZA, 1-hydroxy-2-(1H-imidazol-1-yl)ethylidene-1,1-bisphosphonic acid]
concentration at 4 h (female, Yorkshire, pig, serum, subcutaneous, […], pig 64, Study Group 3, SC, ZA […], rHuPH20 10000 U/mL, 100 mL over 16 min, read-out: Zoledronic Acid Serum Concentration): 19 ng/mL
concentration at 6 h (female, Yorkshire, pig, serum, subcutaneous, […], pig 64, Study Group 3, SC, ZA […], rHuPH20 10000 U/mL, 100 mL over 16 min, time 6 h, read-out: Zoledronic Acid Serum Concentration): 5.75 ng/mL
concentration at 0.05 h [1]: 12 ng/mL
concentration at 0.333 h [1]: 103 ng/mL
concentration at 0.5 h [1]: 78.2 ng/mL
concentration at 1 h [1]: 53.3 ng/mL
concentration at 2 h [1]: 23.2 ng/mL
concentration at 3 h [1]: 11.4 ng/mL
concentration at 4 h [1]: 6.39 ng/mL
concentration at 0.05 h [2]: 342 ng/mL
concentration at 0.333 h [2]: 201 ng/mL
concentration at 0.5 h [2]: 175 ng/mL
concentration at 0.05 h [3]: 101 ng/mL
concentration at 0.333 h [3]: 235 ng/mL
concentration at 0.5 h [3]: 194 ng/mL
concentration at 1 h [3]: 128 ng/mL
concentration at 2 h [3]: 59.7 ng/mL
concentration at 3 h [3]: 31.2 ng/mL
concentration at 4 h [3]: 17.6 ng/mL
concentration at 5 h (female, Yorkshire, pig, serum, subcutaneous, pig 56, Study Group 3, SC, ZA […], rHuPH20 10000 U/mL, 25 mL over 4 min, time 5 h, read-out: Zoledronic Acid Serum Concentration): 19.6 ng/mL
concentration at 6 h (female, Yorkshire, pig, serum, subcutaneous, pig 56, Study Group 3, SC, ZA […], rHuPH20 10000 U/mL, 25 mL over 4 min, time 6 h, read-out: Zoledronic Acid Serum Concentration): 7.21 ng/mL
concentration at 8 h (female, Yorkshire, pig, serum, subcutaneous, pig 56, Study Group 3, SC, ZA […], rHuPH20 10000 U/mL, 25 mL over 4 min, time 8 h, read-out: Zoledronic Acid Serum Concentration): 2.28 ng/mL
concentration at 0.05 h [4]: 73.8 ng/mL
concentration at 0.333 h [4]: 270 ng/mL
concentration at 0.5 h [4]: 177 ng/mL
concentration at 1 h [4]: 107 ng/mL
concentration at 1 h [5]: 90.6 ng/mL
concentration at 2 h [5]: 43.2 ng/mL
concentration at 3 h [5]: 17 ng/mL
concentration at 4 h [5]: 7.09 ng/mL
concentration at 6 h (female, Yorkshire, pig, serum, subcutaneous, pig 68, Study Group 3, SC, ZA […], rHuPH20 10000 U/mL, 10 mL over 1.6 min, time 6 h, read-out: Zoledronic Acid Serum Concentration): 2.68 ng/mL
concentration at […] (female, Yorkshire, pig, serum, subcutaneous, pig 68, Study Group 3, SC, ZA […], rHuPH20 10000 U/mL, 10 mL over 1.6 min, time […], read-out: Zoledronic Acid Serum Concentration): 50.5 ng/mL
Zoledronic Acid Serum Concentration (pig 56, Study Group 3, SC, ZA […], rHuPH20 10000 U/mL, 25 mL over 4 min, time 10 h): BLQ^a (below assay limit of quantification (2.0 ng/mL))
Zoledronic Acid Serum Concentration (pig 56, Study Group 3, SC, ZA […], rHuPH20 10000 U/mL, 25 mL over 4 min, time 24 h): BLQ (below assay limit of quantification (2.0 ng/mL))
Zoledronic Acid Serum Concentration (pig 56, Study Group 3, SC, ZA […], rHuPH20 10000 U/mL, 25 mL over 4 min, time 48 h): BLQ (below assay limit of quantification (2.0 ng/mL))
Zoledronic Acid Serum Concentration (pig 56, Study Group 3, SC, ZA […], rHuPH20 10000 U/mL, 25 mL over 4 min, time 72 h): BLQ (below assay limit of quantification (2.0 ng/mL))
Zoledronic Acid Serum Concentration (pig 56, Study Group 3, SC, ZA […], rHuPH20 10000 U/mL, 25 mL over 4 min, time […]): BLQ (below assay limit of quantification (2.0 ng/mL))
Zoledronic Acid Serum Concentration (pig 58, Study Group 3, SC, ZA […], rHuPH20 10000 U/mL, 50 mL over 8 min, time 8 h): BLQ (below assay limit of quantification (2.0 ng/mL))
Zoledronic Acid Serum Concentration (pig 58, Study Group 3, SC, ZA […], rHuPH20 10000 U/mL, 50 mL over 8 min, time 10 h): BLQ (below assay limit of quantification (2.0 ng/mL))
Zoledronic Acid Serum Concentration (pig 58, Study Group 3, SC, ZA […], rHuPH20 10000 U/mL, 50 mL over 8 min, time 24 h): BLQ (below assay limit of quantification (2.0 ng/mL))
Zoledronic Acid Serum Concentration (pig 58, Study Group 3, SC, ZA […], rHuPH20 10000 U/mL, 50 mL over 8 min, time 48 h): BLQ (below assay limit of quantification (2.0 ng/mL))
Zoledronic Acid Serum Concentration (pig 58, Study Group 3, SC, ZA […], rHuPH20 10000 U/mL, 50 mL over 8 min, time 72 h): BLQ (below assay limit of quantification (2.0 ng/mL))
Zoledronic Acid Serum Concentration (pig 58, Study Group 3, SC, ZA […], rHuPH20 10000 U/mL, 50 mL over 8 min, time […]): BLQ (below assay limit of quantification (2.0 ng/mL))
Zoledronic Acid Serum Concentration (pig 64, Study Group 3, SC, ZA […], rHuPH20 10000 U/mL, 100 mL over 16 min, time 8 h): BLQ (below assay limit of quantification (2.0 ng/mL))
Zoledronic Acid Serum Concentration (pig 64, Study Group 3, SC, ZA […], rHuPH20 10000 U/mL, 100 mL over 16 min, time 10 h): BLQ (below assay limit of quantification (2.0 ng/mL))
Zoledronic Acid Serum Concentration (pig 64, Study Group 3, SC, ZA […], rHuPH20 10000 U/mL, 100 mL over 16 min, time 24 h): BLQ (below assay limit of quantification (2.0 ng/mL))
Zoledronic Acid Serum Concentration (pig 64, Study Group 3, SC, ZA […], rHuPH20 10000 U/mL, 100 mL over 16 min, time 48 h): BLQ (below assay limit of quantification (2.0 ng/mL))
Zoledronic Acid Serum Concentration (pig 64, Study Group 3, SC, ZA […], rHuPH20 10000 U/mL, 100 mL over 16 min, time 72 h): BLQ (below assay limit of quantification (2.0 ng/mL))
Zoledronic Acid Serum Concentration (pig 64, Study Group 3, SC, ZA […], rHuPH20 10000 U/mL, 100 mL over 16 min, time […]): BLQ (below assay limit of quantification (2.0 ng/mL))
Zoledronic Acid Serum Concentration (pig 66, Study Group 3, SC, ZA […], rHuPH20 10000 U/mL, 100 mL over 16 min, time 6 h): BLQ (below assay limit of quantification (2.0 ng/mL))
Zoledronic Acid Serum Concentration (pig 66, Study Group 3, SC, ZA […], rHuPH20 10000 U/mL, 100 mL over 16 min, time 8 h): BLQ (below assay limit of quantification (2.0 ng/mL))
Zoledronic Acid Serum Concentration (pig 66, Study Group 3, SC, ZA […], rHuPH20 10000 U/mL, 100 mL over 16 min, time 10 h): BLQ (below assay limit of quantification (2.0 ng/mL))
Zoledronic Acid Serum Concentration (pig 66, Study Group 3, SC, ZA […], rHuPH20 10000 U/mL, 100 mL over 16 min, time 24 h): BLQ (below assay limit of quantification (2.0 ng/mL))
Zoledronic Acid Serum Concentration (pig 66, Study Group 3, SC, ZA […], rHuPH20 10000 U/mL, 100 mL over 16 min, time 48 h): BLQ (below assay limit of quantification (2.0 ng/mL))
Zoledronic Acid Serum Concentration (pig 66, Study Group 3, SC, ZA […], rHuPH20 10000 U/mL, 100 mL over 16 min, time 72 h): BLQ (below assay limit of quantification (2.0 ng/mL))
Zoledronic Acid Serum Concentration (pig 66, Study Group 3, SC, ZA […], rHuPH20 10000 U/mL, 100 mL over 16 min, time […]): BLQ (below assay limit of quantification (2.0 ng/mL))
Zoledronic Acid Serum Concentration (pig 68, Study Group 3, SC, ZA […], rHuPH20 10000 U/mL, 10 mL over 1.6 min, time 8 h): BLQ (below assay limit of quantification (2.0 ng/mL))
Zoledronic Acid Serum Concentration (pig 68, Study Group 3, SC, ZA […], rHuPH20 10000 U/mL, 10 mL over 1.6 min, time 10 h): BLQ (below assay limit of quantification (2.0 ng/mL))
Zoledronic Acid Serum Concentration (pig 68, Study Group 3, SC, ZA […], rHuPH20 10000 U/mL, 10 mL over 1.6 min, time 24 h): BLQ (below assay limit of quantification (2.0 ng/mL))
Zoledronic Acid Serum Concentration (pig 68, Study Group 3, SC, ZA […], rHuPH20 10000 U/mL, 10 mL over 1.6 min, time 48 h): BLQ (below assay limit of quantification (2.0 ng/mL))
Zoledronic Acid Serum Concentration (pig 68, Study Group 3, SC, ZA […], rHuPH20 10000 U/mL, 10 mL over 1.6 min, time 72 h): BLQ (below assay limit of quantification (2.0 ng/mL))
Zoledronic Acid Serum Concentration (pig 68, Study Group 3, SC, ZA […], rHuPH20 10000 U/mL, 10 mL over 1.6 min, time […]): BLQ (below assay limit of quantification (2.0 ng/mL))
T½ λz (pig, ZA […] 20-min IV infusion, individual pigs 57, 61, 67): 46.8 min

From US20090311237A1, “Combination therapy using a soluble hyaluronidase and a bisphosphonate” (priority 2008, published 2009)
